Experimental data taken from patent US20240247048A1 (EMORY UNIVERSITY, priority 2021, published 2024).

system: luciferase+ mouse T cells; assay: proliferation of luciferase+ mouse T cells in vitro (plate-bound anti-CD3, luminescence); format: cell-based; conditions: luc+ T cell proliferation, 96 hours, plate-bound anti-CD3
Description: (§1) VIP-related peptides tested in silico for predicted binding affinities to human VPAC1 and VPAC2 (Creative Biolabs). Docking scores show predicted free energy change associated with peptide binding. Note that a greater negative score is predicted to be associated with higher binding affinity. Based upon an initial screen of 300 peptides for binding affinity to VPAC1 and screening a subset of 100 peptides for binding affinity to VPAC2, a select group of peptides were synthesized and tested for their ability to stimulate proliferation of luciferase+ mouse T cells in vitro. The lowest concentration of peptide that led to maximal luminescence is shown. Proliferation data represents the relative level of luminescence from quadruplicate wells containing 1×10E5 T cells/well in a 96 well tissue culture plate stimulated for 96 hours with plate-bound anti-CD3 antibodies. Confirmatory in vivo testing of select peptides was then performed based upon their ability to induce autologous anti-leukemia responses in C57Bl/6 mice that had been previously injected with 1×10E6 C1498 acute myeloid leukemia cells. Leukemia cells were injected on day 0, 10 ug peptide was injected s.c. daily on days 6-12. The predicted binding affinity to VPAC1 and/or VPAC2 was associated with enhanced activity in stimulating mouse T cell proliferation and anti-leukemia activity in mice.

Sequence	lowest concentration of peptide that led to maximal luminescence [µM]
KPRRPYAVNCTSLRKQIAVNKYLNSILN [ANT202]	3
KPRRPYAVNYTRLRKQIAVKKYLMSILN [ANT105]	3
KPRRPYTSDYTRLRKQMAVKKYLNSILN [ANT300]	0.3
KPRRPYAVNCTSLRKQIAVKKYLMSILN [ANT203]	3
KPRRPYTVNYTSLRKQIAVKKYLMLILN [ANT195]	3
KKPRRPYTVNCTSLRKQIAVKKYLMLILN [ANT219]	3
KPRRPYTDNYTRLRKQMAVKKYLNSILN [VIPhyb, reference compound]	1
KPRRPYTDNCTSLRKQIAVNKYLNLILN [ANT197]	3
KPRRPYTDNCTRLRKQMAVKKYLNSILN [ANT005]	3
HSDAVFTDNYTRLRKQMAVKKYLNSILN [VIP, reference compound]	0.1

same assay, conditions: relative luminescence, quadruplicate wells, 96 hours, plate-bound anti-CD3, daily addition of peptide; at the concentration in brackets

Sequence	luc+ T cell proliferation
KPRRPYAVNCTSLRKQIAVNKYLNSILN [ANT202]	171% + 8%
KPRRPYINTKLDKLNTRLVSAQNYMKYR [SCRAM2, reference compound]	108.74%
KPRRPYAVNYTRLRKQIAVKKYLMSILN [ANT105]	121% + 6%
KPRRPYTSDYTRLRKQMAVKKYLNSILN [ANT300]	216% + 20%
KPRRPYAVNCTSLRKQIAVKKYLMSILN [ANT203]	185% + 8%
KPRRPYTVNYTSLRKQIAVKKYLMLILN [ANT195]	161% + 23%
KKPRRPYTVNCTSLRKQIAVKKYLMLILN [ANT219]	189% + 8%
KPRRPYTDNYTRLRKQMAVKKYLNSILN [VIPhyb, reference compound]	197% + 38%
KPRRPYTDNCTSLRKQIAVNKYLNLILN [ANT197]	161% + 13%
KPRRPYTDNCTRLRKQMAVKKYLNSILN [ANT005]	187% + 1%
HSDAVFTDNYTRLRKQMAVKKYLNSILN [VIP, reference compound]	77% + 13%

system: C1498 acute myeloid leukemia cells; assay: survival of mice engrafted with C1498 acute myeloid leukemia; format: in vivo, mouse; parameters: percentage of survival: concentration or dose not given beside the values; conditions: 1 x 10E6 C1498 i.v. on day 0, 10 ug peptide s.c. daily on days 6-12
Method: B6 (CD45.2, H-2K^b) mice were administered C1498 1×10^6/mouse through tail vein. […] Survival of the mice was observed daily. Data were pooled from 3 replicated experiments.
B6 (CD45.2, H-2K^b) mice were administered C1498 1×10^6/mouse through tail vein. […] Survival of the mice was observed daily. Survival of the mice were pooled from 3 replicated experiments and analyzed by log-rank test compared with the survival of mice treated with scrambled peptide.
B6 SJL (CD45.1, H-2K^b) mice were administered C1498 (CD45.2 H-2K^b) 1×10^6/mouse through tail vein. […] The mice were bled weekly from the submandibular vein, starting from day 6, prior to the administration of peptides. Antibodies to CD45.2 identified myeloid leukemia cells and antibodies to CD45.1 identified murine leukocytes of the host.
as §1
To test the ability of the disclosed VIP-R antagonists to effect survival to acute myeloid leukemia survival, B6 (CD45.2, H-2K^b) mice were administered C1498 1×10^6/mouse through tail vein. […] Survival of the mice was observed daily.

Sequence	Percentage alive day 60 [%]	Median survival time [days]
KPRRPYINTKLDKLNTRLVSAQNYMKYR [SCRAM2, reference compound]	0	
KPRRPYADNCTRLRKQIAVNKKYLNSILN [ANT114]	20	34
KPRRPYTSDYTRLRKQMAVKKYLNSILN [ANT300]	33.30	47
KPRRPYAVNCTSLRKQIAVKKYLMSILN [ANT203]	25	34
KPRRPYAVNYTRLRKQMAVNKYLMSILN [ANT107]	30	38
HSDAVFINTKLDKLNTRLVSAQNYMKYR [SCRAM1, reference compound]	0	28
KPRRPYTVNYTSLRKQIAVKKYLMLILN [ANT195]	40	38
KKPRRPYTVNCTSLRKQIAVKKYLMLILN [ANT219]	20	35
KPRRPYTDNYTRLRKQMAVKKYLNSILN [VIPhyb, reference compound]	5	34
KPRRPYTDNCTSLRKQIAVNKYLNLILN [ANT197]	35	37
HSDAVFTDNYTRLRKQMAVKKYLNSILN [VIP, reference compound]	0	30
KPRRPYADNYTRLRKQMAVNKYLNLILN [ANT058]	30	35

same assay, conditions: FIG. 3, leukemia-bearing mice treated with peptide

Sequence	percentage of survival [%]
KPRRPYADNCTRLRKQIAVNKKYLNSILN [ANT114]	20
KPRRPYAVNCTSLRKQIAVKKYLMSILN [ANT203]	25
KPRRPYAVNYTRLRKQMAVNKYLMSILN [ANT107]	20
KPRRPYTVNYTSLRKQIAVKKYLMLILN [ANT195]	40
KKPRRPYTVNCTSLRKQIAVKKYLMLILN [ANT219]	20
KPRRPYTDNYTRLRKQMAVKKYLNSILN [VIPhyb, reference compound]	5
KPRRPYTDNCTSLRKQIAVNKYLNLILN [ANT197]	35
KPRRPYADNYTRLRKQMAVNKYLNLILN [ANT058]	30

system: human T cells; assay: activation of healthy-donor human T cells (anti-CD3), marker expression by flow cytometry; format: cell-based; conditions: across multiple donors
Method: Mean value from ‘Activated’ group shown with dotted line (---) for comparison. Responses from same healthy donors are shown with same color dots. Error bars are computed as the standard error of the mean (SEM) from 6 healthy donor samples.
This study adopted an ex-vivo system using human T cells isolated from healthy donors to screen for novel VIP-R antagonist peptides. Human T cells were cultured over 6 or 24 hours with activation in the presence or absence of peptides and were assessed for percent CD69 surface expression by flow cytometry to measure the state of T cell activation. The activity of the peptides was determined by percent increase in CD69 expression relative to no peptide control. […] We also observed that amongst the donors, most were classified as average responders, with measured value for CD69 expression within the error bars while two others had measured values outside the error bars, one sample reflecting a super-responder (purple dots) and one sample reflecting a slow-responder (green dots) (FIGS. 10A and 10B). […]
Human T cell activation and expansion. […] Cells were counted using Trypan blue dye and phenotyped via flow cytometry on day 9. […]

Sequence	activity compared among the three antagonists (CD69)
KPRRPYTVNYTSLRKQIAVKKYLMLILN [ANT195]	highest activity
